Reference: PMC12657321, “Pre-clinical evaluation of a potent and effective Pin1-degrading agent in pancreatic cancer” (Molecular Therapy Oncology, 2025)
Non-standard residues stand in square brackets, D forms with d. Residues, ends and D or L forms follow the SMILES beside them. *: point of attachment. Trp(6-Cl) = N[C@@H](Cc1c[nH]c2cc(Cl)ccc12)C(=O)O; Pip = O=C(O)[C@@H]1CCCCN1; ClAc = O=C(CCl)*

What was measured:
[1] = target: T1, human Pin1 (Homo sapiens, UniProt Q13526); assay: Covalent complex formation with Pin1 by mass spectrometry; format: binding; details: ligand 20 μM, 2:1 ligand-to-protein ratio, 10 min incubation
T1 construct: Residues 1–163 of human Pin1 were expressed with a thrombin cleavage site and a HisTag at the N-terminus; 6xHis (N); thrombin cleavage site (N); made in house; host or cells: E. coli

[2] = system: MIA PaCa-2 cells; format: cell-based, human; details: 72 h
Procedure: (§1) The effect of Pin1 degradation by 164B8 on cell viability was assessed using live-cell analysis (IncuCyte S3). […] Furthermore, to evaluate the acute single-dose toxicity of 164B8 in vivo, CD-1 immune-competent mice were exposed to increasing doses of 164B8. […] Therefore, a maximum tolerated dose was not reached (Figure S12).
(§2) Figure S11: Mia PaCa-2 and KPC cells were treated with different doses of 164B8, and the
(§3) IncuCyte S3 live-cell analysis system was used to monitor the agent’s activity every 3 hours for
(§4) (1 picture or pasted object on this page, not shown here)

[3] = Stability in aqueous buffer (1x PBS); format: physicochemical; details: 1x phosphate buffered saline, 1 μg/mL, 37°C, up to 6 h, acetonitrile quench, LC-MS/MS
Procedure: (§5) A solution of a Pin1 inhibitor was spiked into blank plasma at 1 μg/mL in various solutions, including an aqueous buffer (1× phosphate-buffered saline; Fisher Scientific, Fair Lawn, NJ), human plasma (Innovative Research Inc., Novi, MI), wild-type mouse plasma (Innovative Research Inc., Novi, MI), plasma form esterase-deficient mice (City of Hope, Duarte, CA), and plasma from Black 6-Cg mice (City of Hope, Duarte, CA).
(§6) The spiked plasma samples were incubated at 37°C for up to 6 h. At each designated time point, a 20 μL aliquot of the incubation sample was removed and quenched in 100 μL of acetonitrile. At the end of the incubation, the quenched samples were vortexed and centrifuged for 10 min at 4°C and 20,000 × g. The resulting supernatant was reconstituted and analyzed by LC-MS/MS.
(§7) Table S2. Stability half-life of agents reported in Table 1 after incubation at 37 °C in various media. Acq represents aqueous buffer composed of 1x phosphate buffered saline (Fisher Scientific, Fair Lawn, NJ); human represents human plasma (Innovative Research Inc., Novi, MI); mouse wt represents wild type mouse plasma (Innovative Research Inc., Novi, MI); mouse ES1e represents plasma form esterase deficient mice (City of Hope, Duarte, CA); mouse B6-Cg represents plasma from black 6-Cg mice (City of Hope, Duarte, CA). See Figure 1 for the chemical structures of these compounds.
(§8) Compound Acq Human Mouse Mouse ES1e Mouse

[4] = target: T2, Pin1 in MIA PaCa-2 cells (Homo sapiens, UniProt Q13526); assay: Pin1 degradation by western blot in MIA PaCa-2 cells; format: cell-based; details: MIA PaCa-2, 0.5-15 μM for 24 h, Pin1 relative to β-actin
T2 construct: endogenous in cells; host or cells: BxPC3, MIA PaCa-2
Procedure: To ascertain that the plasma-stable agent 164B8 retained its ability to induce Pin1 degradation in cells, we tested it in three pancreatic cancer cell lines—human BxPC3 and MIA PaCa-2, and the mouse pancreatic cancer cell line KPC—using western blot analysis (Figure 2).
Figure 2 Degradation of Pin1 in different cell lines in response to 164B8 treatment BxPC3, MIA PaCa-2, and KPC were each treated with 0.1% DMSO and concentrations of 164B8 ranging between 0.5 and 15 μM for 24 h, and Pin1 levels were quantified with respect to β-actin using a specific anti-Pin1 antibody and western blotting (uncropped blots are reported in Figure S6).
At the end of the treatments, cells were lysed with a lysis buffer containing 20 mM Tris (pH 7.4), 1% Triton X-100, 5 mM EDTA, 0.1% sodium dodecyl sulfate (SDS), 1% IGEPAL, 0.5% sodium deoxycholate, 120 mM NaCl, and a protease inhibitor cocktail and PhosSTOP (Sigma-Aldrich). Lysates were then centrifuged at 16,000 × g for 20 min at 4°C, and the supernatants were collected. Protein concentrations were determined using the Pierce BCA Protein Assay Kit (Thermo Fisher Scientific) according to the manufacturer’s protocol. For traditional western blotting (Figure 2), samples were loaded onto precast Bis-Tris gels and subsequently transferred onto PVDF membranes. […]

[5] = Stability in plasma from Black 6-Cg mice; format: in vitro ADME; details: Black 6-Cg (B6-Cg), mouse, 37°C, up to 6 h, acetonitrile quench, LC-MS/MS
Procedure: as §5, §6, §7, §8

[6] = system: KPC cells; format: cell-based, mouse; details: 72 h
Procedure: as §1, §2, §3, §4

[7] = target: Pin1 in BxPC3 cells (Homo sapiens, UniProt Q13526); assay: Pin1 recovery after degradation, capillary electrophoresis immunoassay, BxPC3; format: cell-based; set-up: endogenous in cells; host or cells: BxPC3; details: BxPC3, 5 μM for 24 h, washed, serum-free media, 48 h after wash; two independent replicates
Procedure: To preliminarily assess the duration of Pin1 degradation in cancer cells, BxPC3 and KPC cells were treated with 164B8 for 24 h, washed, and then incubated in serum-free medium for various time points. Pin1 levels were then measured by capillary electrophoresis (Figure 3).
Figure 3 Western blot-like images of Pin1 recovery after degradation by 164B8 using capillary electrophoresis immunoassay (A) BxPC3 cells were pretreated with either 0.1% DMSO or 5 μM 164B8 for 24 h before washing and incubating in serum-free media to evaluate Pin1 recovery at 0, 6, 12, 24, and 48 h. (B) The experiment was performed in two independent replicates, and the results are plotted with the associated standard deviation. (C and D), as in (A) and (B), respectively, but testing the agents against the KPC cell line.
For capillary electrophoresis immunoassays (Figure 3), following protein quantification via the bicinchoninic acid (BCA) assay, the Jess Simple Western instrument (Protein Simple, Bio-Techne, Minneapolis, MN, USA) was utilized according to the manufacturer’s protocol for the 12–230 kDa separation module (SM-W001, Bio-Techne). […] The resulting data were analyzed using Compass for Simple Western software (v.6.3.0), utilizing the default high dynamic range 4.0 image settings and Gaussian peak fitting to obtain the area under each curve for quantification and analysis.

Sequence of Pin1 in BxPC3 cells (Q13526 whole entry): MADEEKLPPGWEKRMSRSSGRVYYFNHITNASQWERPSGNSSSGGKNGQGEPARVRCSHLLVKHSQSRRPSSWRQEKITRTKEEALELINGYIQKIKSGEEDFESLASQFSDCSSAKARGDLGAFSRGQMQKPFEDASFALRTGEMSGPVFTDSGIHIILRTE
T2 sequence (Q13526 whole entry): as above
T1 sequence (Q13526 whole entry, the tested form may be a part): as the sequence (Q13526 whole entry) above

For `CNC(=O)[C@H](Cc1c[nH]c2ccccc12)NC(=O)[C@@H]1CCCCN1C(=O)[C@H](Cc1c[nH]c2cc(Cl)ccc12)NC(=O)CCl` [164B8] (ClAc-[Trp(6-Cl)]-[Pip]-Trp-NHMe), the “% Complex (MS)” value [1] was “∼100%”, the EC50 [2] was 8.4 µM and the “Stability half-life, Acq (aqueous buffer)” value [3] was greater than 5 h. The “DC50 of Pin1 degradation” value [4] was “sub-micromolar”, the half-life at 1 μg/mL [5] was greater than 5 h and the EC50 [6] was 5.3 µM. The “Pin1 levels restored after exposure and wash-out” value [7] was “approximately 50%”.
